Test system: AMPA receptors
Test: Electrophysiological measurement of intensification of the agonist-induced current on cells expressing functional AMPA receptors
Assay type: cell-based
Parameters: key: + good; + + very good
Settings: positive allosteric influence on agonist-induced current; tested at concentrations between 0.3 μmol and 300 μmol
Procedure: The effect of the compounds according to the invention as AMPA receptor modulators was measured electrophysiologically on cells which express functional AMPA receptors. Investigations were carried out to see whether the test substances have a positive allosteric influence on the agonist-induced current.
The test was carried out at concentrations of between 0.3 μmol and 300 μmol.

SMILES | Intensification of the Agonist-Induced Current, Activity
CC1Nc2cccc3cccc(c23)S1(=O)=O (centres unmarked) [Example 1, 2-methyl-2,3-dihydronaphtho[1,8-de][1,3]thiazine-1,1-dioxide] | +
CC1Nc2ccc(Cl)c3cccc(c23)S1(=O)=O (centres unmarked) [Example 2, 6-chloro-2-methyl-2,3-dihydronaphtho[1,8-de][1,3]thiazine-1,1-dioxide] | + +

Source: patent US7026475B2, “Positive allosteric AMPA receptor modulators (PAARM), processes for preparing them, and their use as pharmaceutical compositions” (Boehringer Ingelheim Pharma GmbH & Co. KG, priority 2001, dated 2006)
